Measured values from US3981903A, “Cyclopropane carboxylic acid esters” (Sumitomo Chemical Company, Limited, priority 1973, dated 1976).
Values after ≈ are worked out from the molar mass of the structure shown.

Columns and labels:
Assay type in all cases: in vivo
green rice leafhoppers = test: Test Example 1: pesticidal effect on green rice leafhoppers, sprayed rice seedlings; conditions: for Mortality: 20 % emulsifiable concentrate diluted to 200 times, next day, 1440 min; for KT50 (50 % knock-down time): 20 % emulsifiable concentrate diluted with water to 200 times
Description: The present compounds (1), (2), (3), (4), (5) and (6) were individually formulated according to ordinary procedure into 20 % emulsifiable concentrates. As a standard compound, 3,4-dimethylphenyl-N-methyl carbamate [hereinafter referred to as "Meobal" (registered trademark of Sumitomo Chemical Co., Ltd.)] was also formulated into a 20 % emulsifiable concentrate.
In flower pots of 9 cm. in diameter, about 20 rice seedlings per pot were grown to the stage of 3 to 4 leaves. Each of the above-mentioned emulsifiable concentrates was diluted with water to 200 times, and sprayed to the seedlings by use of a turn table. After air-drying, the seedlings were put in a 5 liter glass beaker, which was then covered at the top with gauze. Thereafter, 20 green rice leafhoppers were liberated into the beaker, and the number of knocked down insects was counted with lapse of time to calculate the value of KT50 (50 % knock-down time). On the next day, the number of dead and alive insects was counted to calculate the mortality.

diamondback moths = test: Test Example 2: pesticidal effects on diamondback moth larvae, sprayed Chinese cabbage; conditions: for LC50: Plutella xylostella, 48 h, fourth instar larvae, after 2 days, from 20 % emulsifiable concentrates, read-out: LC50 (50 % lethal concentration); for Ratio of effect: relative to DDVP, defined as 1.0
Description: The present compounds (1), (2), (3) and (4) were individually formulated according to ordinary procedure into 20 % emulsifiable concentrates. As a control, DDVP was also formulated into a 20 % emulsifiable concentrate.
Each of the above-mentioned emulsifiable concentrates was diluted with water to a test concentration, and 10 ml. of the resulting dilution was sprayed to the potted Chinese cabbages at the stage of 3 to 4 leaves. Subsequently, the cabbage leaves were put in a glass Petri dish of 14 cm. in diameter and 7 cm. in height, and 10 diamondback moth larvae at the fourth instar stage were liberated into the dish. After 2 days, the number of dead and alive larvae was counted to calculate the value of LC50 (50 % lethal concentration).

housefly adults = test: Test Example 3: pesticidal effects on housefly adults, Campbell's turn table, 0.2 % oil preparations; conditions: 0.2 % oil preparation, 5 ml, present compounds as dl-trans isomers; for mortality at 0.2 %: Musca domestica, 24 h, after a day
Description: dl-Trans isomers of the present compounds (1), (2), (3) and (4) were individually formulated by use of deodorized kerosene into 0.2 % oil preparations. As a control, pyrethrin was also formulated into a 0.2 % oil preparation.
Using the Campbell's turn table [Soap and Sanitary Chemicals; Vol. 14, No. 119 (1938)], 5 ml. of each of the above-mentioned oil preparations was sprayed. When 20 seconds had elapsed after the spraying, the shutter was opened, and a group of about 100 housefly adults were exposed to the settling mist for 10 minutes. Subsequently, the number of knocked down houseflies was counted to calculate the knock-down ratio. The houseflies were then transferred to another cage, fed and allowed to stand for a day at room temperature. Thereafter, the number of dead and alive houseflies was counted to calculate the mortality.

Structure (SMILES) | Mortality (green rice leafhoppers) [%] | KT50 (50 % knock-down time) (green rice leafhoppers) [min] | LC50 (diamondback moths) [µg/mL] | Ratio of effect (diamondback moths) | Ratio of knocked down houseflies after 10 minutes (housefly adults) [%] | mortality at 0.2 % (housefly adults) [%]
CC(=CCOC(=O)C1C(C=C(Cl)Cl)C1(C)C)Cc1ccccc1 (stereo not drawn) [(4), 3-Methyl-4-phenyl-2-butene-1-yl 2',2'-dimethyl-3'-(2",2"-dichlorovinyl)-cyclopropanecarboxylate] | 100 | 15 | 75 (≈ 212 µM) | 4.9 | 100 | 98
CC1(C)C(C=C(Cl)Cl)C1C(=O)OC/C(Cl)=C(\Cl)Cc1ccccc1 (stereo not drawn) [(6), 2,3-Dichloro-4-phenyl-trans-2-butene-1-yl 2',2'-dimethyl-3'-(2",2"-dichlorovinyl)-cyclopropanecarboxylate] | 100 | 21 | – | – | – | –
CC1(C)C(C=C(Cl)Cl)C1C(=O)OC/C=C(\Br)Cc1ccccc1 (stereo not drawn) [(2), 3-Bromo-4-phenyl-trans-2-butene-1-yl 2',2'-dimethyl-3'-(2",2"-dichlorovinyl)-cyclopropanecarboxylate] | 100 | 13 | 56 (≈ 134 µM) | 6.6 | 100 | 99
COP(=O)(OC)OC=C(Cl)Cl [DDVP, 0,0-Dimethyl 0-2,2-dichlorovinyl phosphate, reference compound] | – | – | 370 | – | – | –
CC1(C)C(C=C(Cl)Cl)C1C(=O)OC/C=C(\Cl)Cc1ccccc1 (stereo not drawn) [(1), 3-Chloro-4-phenyl-trans-2-butene-1-yl 2',2'-dimethyl-3'-(2",2"-dichlorovinyl)-cyclopropanecarboxylate] | 100 | 19 | 43 (≈ 115 µM) | 8.6 | 100 | 100
CC1(C)C(C=C(Cl)Cl)C1C(=O)OCC=C(Cl)Cc1ccccc1 (stereo not drawn) [(5), 3-Chloro-4-phenyl-trans-2-butene-1-yl d-trans-2',2'-dimethyl-3' -(2",2"-dichlorovinyl)-cyclopropanecarboxylate] | 100 | 9 | – | – | – | –
CC1(C)C(C=C(Cl)Cl)C1C(=O)OC/C=C/Cc1ccccc1 (stereo not drawn) [(3), 4-Phenyl-trans-2-butene-1-yl 2',2'-dimethyl-3'-(2",2"-dichlorovinyl)-cyclopropanecarboxylate] | 100 | 11 | 48 (≈ 141 µM) | 7.7 | 100 | 100
CNC(=O)Oc1ccc(C)c(C)c1 [Meobal, 3,4-dimethylphenyl-N-methyl carbamate, reference compound] | – | 24 | – | – | – | –
